Test results reported in PMC7429357 (Journal of medicinal chemistry, 2020).
Like-named read-outs stand apart in the source and are kept apart here.

Assays:
[1] = target: T1, NTMT1 (Homo sapiens, UniProt Q9BV86); test: SAHH-coupled fluorescence assay; assay type: biochemical; conditions: for fold decrease in IC50 activity compared to 3: 10 min preincubation; for fold activity decrease compared to respective NAH-GPKRIA compound: 5 vs 1, 6 vs 2
T1 sequence (Q9BV86 1-223): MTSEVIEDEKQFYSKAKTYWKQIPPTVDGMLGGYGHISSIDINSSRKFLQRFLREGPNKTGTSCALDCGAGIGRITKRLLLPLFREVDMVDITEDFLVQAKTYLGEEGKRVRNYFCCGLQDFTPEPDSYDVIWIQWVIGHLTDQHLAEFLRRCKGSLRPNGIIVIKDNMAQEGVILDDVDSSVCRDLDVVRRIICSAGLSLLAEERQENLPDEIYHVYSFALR

[2] = target: T1, NTMT1
[3] = tested on: NTMT1; conditions: cited from earlier work
[4] = tested on: other methyltransferases; conditions: cited from earlier work
[5] = tested on: NTMT1; conditions: MALDI-MS based assay; cited from earlier work
[6] = target: SET domain-containing protein 7 (SETD7) (Homo sapiens, UniProt Q8WTS6); conditions: at 100 μM
Chain of SET domain-containing protein 7 (SETD7) (Q8WTS6 whole entry, species assumed, the tested form may be a part): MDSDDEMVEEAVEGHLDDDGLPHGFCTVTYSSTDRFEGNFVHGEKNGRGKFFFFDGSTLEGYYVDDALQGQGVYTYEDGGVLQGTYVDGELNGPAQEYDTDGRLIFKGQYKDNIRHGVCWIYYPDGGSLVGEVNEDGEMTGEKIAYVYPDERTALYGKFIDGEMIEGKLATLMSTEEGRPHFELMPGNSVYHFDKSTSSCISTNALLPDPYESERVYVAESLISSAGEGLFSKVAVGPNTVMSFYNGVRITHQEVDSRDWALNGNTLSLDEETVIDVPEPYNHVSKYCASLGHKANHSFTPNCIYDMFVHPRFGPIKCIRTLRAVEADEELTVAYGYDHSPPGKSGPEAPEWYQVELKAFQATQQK

[7] = target: nicotinamide N-methyltransferase (NNMT) (Homo sapiens, UniProt P40261); conditions: at 100 μM
Chain of nicotinamide N-methyltransferase (NNMT) (P40261 whole entry, species assumed): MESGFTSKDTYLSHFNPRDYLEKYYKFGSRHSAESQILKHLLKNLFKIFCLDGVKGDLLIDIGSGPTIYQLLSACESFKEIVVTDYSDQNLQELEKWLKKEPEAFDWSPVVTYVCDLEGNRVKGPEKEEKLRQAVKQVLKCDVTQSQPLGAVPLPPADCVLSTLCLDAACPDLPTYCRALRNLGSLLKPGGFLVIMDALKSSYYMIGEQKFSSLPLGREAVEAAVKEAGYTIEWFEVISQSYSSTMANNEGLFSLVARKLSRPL

[8] = target: Trypanosoma brucei protein arginine methyltransferase 7 (TbPRMT7) (Trypanosoma brucei brucei, UniProt Q582G4); test: biochemical
Chain of Trypanosoma brucei protein arginine methyltransferase 7 (TbPRMT7) (Q582G4 whole entry): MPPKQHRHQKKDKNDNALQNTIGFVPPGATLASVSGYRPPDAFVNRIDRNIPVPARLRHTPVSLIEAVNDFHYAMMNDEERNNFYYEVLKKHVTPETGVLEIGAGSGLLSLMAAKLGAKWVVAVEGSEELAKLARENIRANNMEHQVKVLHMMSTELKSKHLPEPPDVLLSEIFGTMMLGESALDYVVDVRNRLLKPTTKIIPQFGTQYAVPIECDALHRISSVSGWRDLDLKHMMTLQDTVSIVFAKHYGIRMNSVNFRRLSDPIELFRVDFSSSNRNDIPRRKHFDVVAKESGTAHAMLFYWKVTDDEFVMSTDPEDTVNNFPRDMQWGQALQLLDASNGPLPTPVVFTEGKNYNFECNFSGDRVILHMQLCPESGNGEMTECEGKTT

[9] = target: T1, NTMT1; test: MALDI-MS methylation inhibition assay; assay type: biochemical; conditions: 10 min preincubation, 20 min
[10] = target: euchromatic histone-lysine N-methyltransferase 2 (G9a) (Homo sapiens, UniProt Q96KQ7); conditions: at 100 μM
Chain of euchromatic histone-lysine N-methyltransferase 2 (G9a) (Q96KQ7 whole entry, species assumed): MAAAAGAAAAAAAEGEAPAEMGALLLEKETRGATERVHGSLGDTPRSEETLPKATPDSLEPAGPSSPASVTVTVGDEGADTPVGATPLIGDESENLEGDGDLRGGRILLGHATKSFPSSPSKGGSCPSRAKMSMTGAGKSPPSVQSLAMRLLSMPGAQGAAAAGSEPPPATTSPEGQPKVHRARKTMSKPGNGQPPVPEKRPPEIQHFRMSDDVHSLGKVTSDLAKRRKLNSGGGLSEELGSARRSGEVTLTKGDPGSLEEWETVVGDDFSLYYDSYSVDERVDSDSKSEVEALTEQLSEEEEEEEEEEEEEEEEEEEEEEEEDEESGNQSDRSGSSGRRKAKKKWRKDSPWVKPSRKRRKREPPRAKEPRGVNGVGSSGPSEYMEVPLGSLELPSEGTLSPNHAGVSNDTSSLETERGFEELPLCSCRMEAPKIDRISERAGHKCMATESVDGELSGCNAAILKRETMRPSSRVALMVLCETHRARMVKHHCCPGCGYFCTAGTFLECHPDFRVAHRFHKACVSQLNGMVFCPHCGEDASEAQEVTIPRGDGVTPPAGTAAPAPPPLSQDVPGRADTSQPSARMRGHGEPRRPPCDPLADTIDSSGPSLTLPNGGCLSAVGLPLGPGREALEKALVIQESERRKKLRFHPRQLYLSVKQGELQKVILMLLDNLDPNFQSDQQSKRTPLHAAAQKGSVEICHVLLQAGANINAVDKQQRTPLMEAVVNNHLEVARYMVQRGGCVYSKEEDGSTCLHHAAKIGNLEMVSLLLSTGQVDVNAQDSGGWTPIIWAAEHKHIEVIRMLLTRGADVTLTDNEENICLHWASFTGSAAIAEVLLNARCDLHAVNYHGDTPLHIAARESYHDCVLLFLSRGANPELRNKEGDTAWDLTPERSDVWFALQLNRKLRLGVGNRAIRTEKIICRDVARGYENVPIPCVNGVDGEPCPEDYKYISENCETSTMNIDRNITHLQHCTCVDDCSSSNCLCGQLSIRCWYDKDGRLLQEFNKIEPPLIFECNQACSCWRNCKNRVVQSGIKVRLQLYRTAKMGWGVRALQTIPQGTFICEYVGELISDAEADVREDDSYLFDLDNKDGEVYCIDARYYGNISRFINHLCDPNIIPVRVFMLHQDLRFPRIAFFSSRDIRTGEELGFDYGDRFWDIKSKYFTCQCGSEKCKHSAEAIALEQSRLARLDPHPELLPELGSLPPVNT

CC[C@H](C)[C@H](NC(=O)[C@H](CCCNC(=N)N)NC(=O)[C@H](CCCCN)NC(=O)[C@@H]1CCCN1C(=O)CNCCN(CC[C@H](N)C(=O)O)C[C@H]1O[C@@H](n2cnc3c(N)ncnc32)[C@H](O)[C@@H]1O)C(=O)N[C@@H](C)C(N)=O [Compound 1, NAH-C2-GPKRIA]
fold decrease in IC50 activity compared to 3 [1]: 3 fold
fold decrease in Ki, app in comparison with 3 [2]: 40 fold

NAH-C3-GPRRRS
IC50 [3]: 940 ± 160 nM

N=C(N)NCCC[C@H](NC(=O)[C@H](CCCCN)NC(=O)[C@@H]1CCCN1C(=O)CNCCCCN(CC[C@H](N)C(=O)O)C[C@H]1O[C@@H](n2cnc3c(N)ncnc32)[C@H](O)[C@@H]1O)C(N)=O [Compound 7, NAH-C4-GPKR]
fold better activity than 5 [1]: 4 fold
fold better activity than 6 [1]: 2 fold

N=C(N)NCCC[C@H](NC(=O)[C@H](CCCCN)NC(=O)[C@@H]1CCCN1C(=O)CNCCN(CC[C@H](N)C(=O)O)C[C@H]1O[C@@H](n2cnc3c(N)ncnc32)[C@H](O)[C@@H]1O)C(N)=O [Compound 5, NAH-C2-GPKR]
fold activity decrease compared to respective NAH-GPKRIA compound [1]: < 2 fold

N=C(N)NCCC[C@H](NC(=O)[C@H](CCCCN)NC(=O)[C@@H]1CCCN1C(=O)CNCCCN(CC[C@H](N)C(=O)O)C[C@H]1O[C@@H](n2cnc3c(N)ncnc32)[C@H](O)[C@@H]1O)C(N)=O [Compound 6, NAH-C3-GPKR]
fold activity decrease compared to respective NAH-GPKRIA compound [1]: < 2 fold

NAH-C3-PPKRIA
selectivity against other methyltransferases [4]: more than 100 fold
IC50 [5]: 35 ± 2 nM

CC[C@H](C)[C@H](NC(=O)[C@H](CCCNC(=N)N)NC(=O)[C@H](CCCCN)NC(=O)[C@@H]1CCCN1C(=O)CNCCCN(CC[C@H](N)C(=O)O)C[C@H]1O[C@@H](n2cnc3c(N)ncnc32)[C@H](O)[C@@H]1O)C(=O)N[C@@H](C)C(N)=O [Compound 2, NAH-C3-GPKRIA]
fold decrease in IC50 activity compared to 3 [1]: 1.5 fold

CC[C@H](C)[C@H](NC(=O)[C@H](CCCNC(=N)N)NC(=O)[C@H](CCCCN)NC(=O)[C@@H]1CCCN1C(=O)CNCCCCN(CC[C@H](N)C(=O)O)C[C@H]1O[C@@H](n2cnc3c(N)ncnc32)[C@H](O)[C@@H]1O)C(=O)N[C@@H](C)C(N)=O [Compound 3, NAH-C4-GPKRIA]
inhibitory activity [6]: barely showed inhibitory activity
inhibitory activity [7]: barely showed inhibitory activity
inhibition at 33 µM [8]: < 50%
tri-methylation of GPKRIA peptide ([9]; 50 nM compound): substantially reduced
tri-methylation of GPKRIA peptide ([9]; 200 nM compound): barely detected
inhibitory activity [10]: barely showed inhibitory activity
